Data published in patent publication US20060122201A1, “Uracil-thioether” (priority 2002, published 2006).

Target: T1, Pol III (PolC) from S. aureus (Staphylococcus aureus, UniProt P0C1P9)
T1 construct: His tag (pET15b vector) (N); made in house; host or cells: E. coli BL21(DE3)
T1 sequence (P0C1P9 1-1435): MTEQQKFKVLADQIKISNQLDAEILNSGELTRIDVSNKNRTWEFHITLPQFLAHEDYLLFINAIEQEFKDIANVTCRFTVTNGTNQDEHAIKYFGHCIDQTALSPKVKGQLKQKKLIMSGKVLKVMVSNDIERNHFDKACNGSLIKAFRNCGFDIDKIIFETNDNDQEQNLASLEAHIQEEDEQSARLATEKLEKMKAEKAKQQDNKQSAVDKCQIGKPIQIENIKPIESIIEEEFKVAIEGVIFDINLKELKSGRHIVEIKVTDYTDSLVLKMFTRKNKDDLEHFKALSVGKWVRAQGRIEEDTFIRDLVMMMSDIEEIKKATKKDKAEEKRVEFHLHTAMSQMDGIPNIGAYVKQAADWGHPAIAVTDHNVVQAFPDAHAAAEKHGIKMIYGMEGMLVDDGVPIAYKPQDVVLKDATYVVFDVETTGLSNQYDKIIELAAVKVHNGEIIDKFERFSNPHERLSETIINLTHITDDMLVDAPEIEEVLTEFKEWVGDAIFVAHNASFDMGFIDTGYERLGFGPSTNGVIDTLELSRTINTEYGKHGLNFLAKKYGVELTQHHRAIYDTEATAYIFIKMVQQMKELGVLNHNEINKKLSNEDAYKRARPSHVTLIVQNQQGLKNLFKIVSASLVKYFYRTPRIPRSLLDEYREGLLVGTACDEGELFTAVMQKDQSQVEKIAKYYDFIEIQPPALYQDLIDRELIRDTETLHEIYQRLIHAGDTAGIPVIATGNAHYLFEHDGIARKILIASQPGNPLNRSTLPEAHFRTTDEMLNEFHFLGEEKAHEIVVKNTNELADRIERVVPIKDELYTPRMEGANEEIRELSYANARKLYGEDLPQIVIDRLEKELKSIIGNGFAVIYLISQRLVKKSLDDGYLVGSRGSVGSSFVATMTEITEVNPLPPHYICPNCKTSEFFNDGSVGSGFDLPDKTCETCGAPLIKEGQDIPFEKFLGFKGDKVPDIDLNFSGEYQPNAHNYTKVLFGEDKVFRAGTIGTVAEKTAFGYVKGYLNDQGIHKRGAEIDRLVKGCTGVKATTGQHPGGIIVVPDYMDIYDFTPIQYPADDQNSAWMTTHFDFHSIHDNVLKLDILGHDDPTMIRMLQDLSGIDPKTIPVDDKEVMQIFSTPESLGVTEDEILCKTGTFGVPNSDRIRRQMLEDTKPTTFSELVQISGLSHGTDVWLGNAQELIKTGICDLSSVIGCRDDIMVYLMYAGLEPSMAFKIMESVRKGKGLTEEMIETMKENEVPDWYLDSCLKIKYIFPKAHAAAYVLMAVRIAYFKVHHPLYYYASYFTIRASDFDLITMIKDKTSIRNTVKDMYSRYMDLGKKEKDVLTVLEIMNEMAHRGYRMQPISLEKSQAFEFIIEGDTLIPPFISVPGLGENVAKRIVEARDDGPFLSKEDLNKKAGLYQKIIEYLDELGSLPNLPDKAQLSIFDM
Assay: Determination of the IC50 for Polymerase III (PolC), coupled pyrophosphate/ATP sulfurylase/luciferase assay
Type: biochemical
Details: purified His-tagged PolC 2 nM, activated calf thymus DNA, 30° C. 30 min, luminescence readout
Description: Cloning, Expression and Purification of Pol III from S. aureus
To clone polC with an N-terminal His tag, the structural gene polC is amplified from S. aureus genomic DNA with the aid of PCR. The primers SAPol 31 5′-[…]-3′ and SAPolrev 5′-[…]-3′ are used to introduce the NdeI and BamHI restriction cleavage sites respectively in front of and behind the amplified gene. After the PCR product which is 4300 bp in size has been digested with NdeI and BamHI, it is ligated into the vector pET15b (Novagen, USA), which has likewise been digested with NdeI and BamHI, and transformed into E. coli XL-1 Blue.
After transformation into E. coli BL21(DE3), the cells are cultivated for expression of PolC at 30° C. in LB medium with 100 μg/ml ampicillin until the OD595nm is 0.5, cooled to 18° C. and, after addition of 1 mM IPTG, incubated for a further 20 hours. The cells are harvested by centrifugation, washed once in PBS with 1 mM PMSF and taken up in 50 mM NaH2PO4 pH 8.0, 10 mM imidazole, 2 mM β-mercaptoethanol, 1 mM PMSF, 20% glycerol. The cells are disrupted using a French press at 12,000 psi, the cell detritus is removed by centrifugation (27,000×g, 120 min, 4° C.) and the supernatant is stirred with an appropriate amount of Ni-NTA-agarose (from Quiagen, Germany) at 4° C. for 1 hour. After the gel matrix has been packed into a column it is washed with 50 mM NaH2PO4 pH 8.0, 2 mM β-mercaptoethanol, 20 mM imidazole, 10% glycerol, and the purified protein is then eluted with the same buffer containing 100 mM imidazole. The purified protein is mixed with 50% glycerol and stored at −20° C.
Determination of the IC50 for Polymerase III
The activity of PolC is measured in an enzymatically coupled reaction, with the pyrophosphate formed during the polymerization being converted with the aid of ATP sulfurylase into ATP, which is detected using firefly luciferase. The reaction mixture contains, in a final volume of 50 μl, 50 mM Tris/Cl pH 7.5; 5 mM DTT, 10 mM MgCl2, 30 mM NaCl, 0.1 mg/ml BSA, 10% glycerol, 20 μM each DATP, dTTP, dCTP, 2 U/ml activated calf thymus DNA (from Worthington, USA), 20 μM APS and 0.06 mM luciferin. The reaction is started by adding purified PolC in a final concentration of 2 nM and is incubated at 30° C. for 30 min. The amount of pyrophosphate formed is then converted into ATP by adding ATP sulfurylase (Sigma, USA) in a final concentration of 5 nM and incubating at 30° C. for 15 min. After addition of 0.2 nM firefly luciferase, the luminescence is measured in a luminometer for 60 s. The IC50 is reported as the concentration of an inhibitor which leads to 50% inhibition of the enzymic activity of PolC.

IC50 [nM]	SMILES
50	CCc1cc(Nc2cc(=O)n(CCSCc3nnc(C)s3)c(=O)[nH]2)ccc1C [Example 16]
300	CCc1cc(Nc2cc(=O)n(CCSCC(=O)N3CCN(c4ccc([N+](=O)[O-])cc4)CC3)c(=O)[nH]2)ccc1C [Example 34]
400	CCc1cc(Nc2cc(=O)n(CCCSCC(=O)N3CCN(c4ccc(F)cc4)CC3)c(=O)[nH]2)ccc1C [Example 47]

Further lines, the molecule ahead of its results:

SMILES	IC50 [nM]
CSc1nnc(CSCCn2c(=O)cc(Nc3ccc4c(c3)CCC4)[nH]c2=O)s1 [Example 15]	110
CCc1cc(Nc2cc(=O)n(CCSCc3c(C)noc3C)c(=O)[nH]2)ccc1C [Example 42]	80
